The target of data set [1] is T1, Fatty-acid amide hydrolase 1 (Rattus norvegicus, UniProt P97612).
T1 sequence (P97612 whole entry): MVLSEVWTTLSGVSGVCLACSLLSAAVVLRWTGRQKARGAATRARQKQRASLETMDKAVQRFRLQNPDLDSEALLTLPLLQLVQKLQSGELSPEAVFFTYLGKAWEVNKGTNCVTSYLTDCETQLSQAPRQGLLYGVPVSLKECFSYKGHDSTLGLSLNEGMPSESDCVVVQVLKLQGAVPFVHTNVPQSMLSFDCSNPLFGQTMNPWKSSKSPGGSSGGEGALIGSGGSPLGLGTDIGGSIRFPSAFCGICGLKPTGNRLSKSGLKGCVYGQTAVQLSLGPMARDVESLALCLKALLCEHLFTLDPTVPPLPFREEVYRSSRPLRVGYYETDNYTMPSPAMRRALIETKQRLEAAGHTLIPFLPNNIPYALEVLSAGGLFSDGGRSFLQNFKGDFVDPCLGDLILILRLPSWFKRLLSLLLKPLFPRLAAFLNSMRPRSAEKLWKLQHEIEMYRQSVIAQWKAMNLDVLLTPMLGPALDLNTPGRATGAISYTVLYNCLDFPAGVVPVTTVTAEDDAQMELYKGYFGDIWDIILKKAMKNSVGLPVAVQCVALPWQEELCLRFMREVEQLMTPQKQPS
As to the kind of experiment: Inhibition of rat FAAH.

The target of data set [2] is T1, Fatty-acid amide hydrolase 1.
The species entered for a further data set is Rattus norvegicus. The experiment in a line: Ex vivo inhibition of FAAH activity in rat brain after 16 hrs. Type of data set: functional.
Substrate in data set [3]: CCCCCCCC/C=C\CCCCCCCC(N)=O
The experiment in a line: Activity of FAAH.

What is called IC50 is the midpoint of a concentration-inhibition curve. Lower therefore signals inhibition by little substance. Regarding `CN(C)C(=O)n1nnnc1Cc1ccc(-c2ccccc2)cc1`, in data set [1], the IC50 turned out to be 0.0124 µM.

`O=C1O/C(=C/Br)CCC1c1cccc2ccccc12` (stereo unspecified) [BROMOENOL LACTONE] registered an IC50 in data set [2] of 0.8 µM. That is a sub-micromolar value.

Regarding `NC(=O)c1cccc(-c2cccc(OC(=O)NC3CCCCC3)c2)c1` [URB-597], the “inhibition (INH)” value in the data set listed under Rattus norvegicus was 90%.

On to `CC(C)c1cccc(C(C)C)c1O` [PROPOFOL], for which, in data set [1], the IC50 stood at 14 µM.

Regarding `CCCC(C)C1(CC)C(=O)NC(=S)NC1=O` (stereo unspecified) [THIOPENTAL], in data set [1], the midpoint of inhibition, the IC50, lay at 2000 µM.

B1: Fatty-acid amide hydrolase 1 (Homo sapiens), O00519 (protein)
chain: MVQYELWAALPGASGVALACCFVAAAVALRWSGRRTARGAVVRARQRQRAGLENMDRAAQRFRLQNPDLDSEALLALPLPQLVQKLHSRELAPEAVLFTYVGKAWEVNKGTNCVTSYLADCETQLSQAPRQGLLYGVPVSLKECFTYKGQDSTLGLSLNEGVPAECDSVVVHVLKLQGAVPFVHTNVPQSMFSYDCSNPLFGQTVNPWKSSKSPGGSSGGEGALIGSGGSPLGLGTDIGGSIRFPSSFCGICGLKPTGNRLSKSGLKGCVYGQEAVRLSVGPMARDVESLALCLRALLCEDMFRLDPTVPPLPFREEVYTSSQPLRVGYYETDNYTMPSPAMRRAVLETKQSLEAAGHTLVPFLPSNIPHALETLSTGGLFSDGGHTFLQNFKGDFVDPCLGDLVSILKLPQWLKGLLAFLVKPLLPRLSAFLSNMKSRSAGKLWELQHEIEVYRKTVIAQWRALDLDVVLTPMLAPALDLNAPGRATGAVSYTMLYNCLDFPAGVVPVTTVTAEDEAQMEHYRGYFGDIWDKMLQKGMKKSVGLPVAVQCVALPWQEELCLRFMREVERLMTPEKQSS
As a reminder, the Km is the substrate concentration at which the rate is half of its maximum. Take B1: the Km in data set [3] is 5 µM.
